US11491173B2, “Pharmaceutical composition and application thereof” (priority 2018, dated 2022)
Values joined by “and” are separate entries in the source; they are usually repeats but may differ in a detail not shown here. Equal entries are not always repeated.

Assays:
[1] = tested on: H9c2 cardiomyocyte damage induced by hypoxia; assay: Hypoxia-induced H9c2 cardiomyocyte damage, nucleus number (Hoechst 33342, high-content imaging); format: cell-based; details: 24 h pre-incubation, then hypoxia 8 h; for nucleus number (Table 7): individual replicates N1-N3, 0.4 mg/mL DMSO stock diluted with medium; for nucleus number, Mean (Table 7): mean of N1-N3
Experimental: (§1) 2. Experimental methods: QSYQ-1 and QSYQ-2, and each active ingredient group were ultrasonically dissolved and prepared into a 0.4 mg/mL of stock solution with DMSO. When in vitro activity evaluation was performed, the above groups were diluted with the same amount of experimental medium respectively.
(§2) The cells were collected at the logarithmic growth phase and added to a 96-well culture plate with a black transparent bottom at a concentration of 5000 cells per well and a volume of 100 μL per well. The cells were incubated in an incubator with 5% CO2 at 37° C. for 24 hours. Subsequently, the tested groups were added to the experimental groups respectively, incubated for 24 hours, and then placed in a hypoxic chamber passing a mixed gas composed of 95% nitrogen and 5% CO2 at a flow rate of 15 L/min for 10 mins, and incubated for another 8 hours after inducing hypoxia damage at 37° C. The model group was only incubated for 8 hours under hypoxia, and the blank control group was incubated normally.
(§3) The labeling operation of cell fluorescent probe was as follows: the mother liquor of fluorescent probe Hoechst 33342 was diluted 1000-fold into a DMEM basic medium; then the mother liquor of MitoTracker Deep Red FM was diluted 10000-fold into a culture medium containing Hoechst 33342 to serve as a “cocktail” stain. The medium in the culture plate was discarded and replaced with the “cocktail” stain, 50 μL per well, and incubated in an incubator away from light for 30 mins. The plate was taken out away from light, and washed with DMEM (high glucose) for 3 times and 5 minutes each time. Live cell imaging was performed subsequently.
(§4) The operation of live cell imaging with HCS was as follows: an excitation light of 360-400 and an emission light of 410-480 were selected for the imaging of Hoechst 33342-labeled nuclei; an excitation light of 620-640 and an emission light of 650-760 were selected for the imaging of MitoTracker Deep Red FM-labeled mitochondria. Harmony 3.0 software was applied to analyze the HCS imaging and read the fluorescence intensities of the nucleus/cytoplasm. The HCS screening system combined the automatic fluorescence microscopy imaging functions, and can perform a high-throughput multi-index analysis. Columbus high-efficiency image and data management and analysis system were applied to perform a secondary analysis and management of the image and data, and draw the dosage-dependent curve relationship.

[2] = tested on: H9c2 cardiomyocyte damage induced by hypoxia; assay: Hypoxia-induced H9c2 cardiomyocyte damage, mitochondrial function (MitoTracker Deep Red FM, high-content imaging); format: cell-based; details: 24 h pre-incubation, then hypoxia 8 h; for mitochondrial function (Table 9): individual replicates N1-N3; for mitochondrial function, Mean (Table 9): mean of N1-N3
Experimental: as §1, §2, §3, §4

Row | Compound | nucleus number (Table 7) [1] | nucleus number, Mean (Table 7) [1] | mitochondrial function (Table 9) [2] | mitochondrial function, Mean (Table 9) [2] | mitochondrial function (Table 9) ([2]; listed as Astradaloside)
1 | Cc1coc2c1C(=O)C(=O)c1c-2ccc2c(C)cccc12 [Tanshinone I, tanshinone I] | 379 and 315 and 300 | 331.3 | 876.03 and 904.55 and 828.87 | 869.8 | 
2 | Cc1coc2c1C(=O)C(=O)c1c-2ccc2c1CCCC2(C)C [Tanshinone IIA, tanshinone IIA] |  | 393.3 |  | 695.2 | 
3 | astragaloside [Astragaioside] | 374 and 365 and 435 | 391.3 |  | 817.5 | 812.45 and 768.63 and 871.37
